How the values were obtained:
Type in all cases: in vivo
[1] = tested on: Orchid thrips (Dichromothrips corbetti); experiment: Action on orchid thrips (Dichromothrips corbetti), floral-immersion technique; conditions: adult thrips, mortality 72 hours after treatment, read-out: mortality in comparison with untreated controls
Description: Dichromothrips corbetti adults used for bioassay were obtained from a colony maintained continuously under laboratory conditions. For testing purposes, the test compound is diluted in a 1:1 mixture of acetone:water (vol:vol), plus Kinetic® HV at a rate of 0.01% v/v.
Thrips potency of each compound was evaluated by using a floral-immersion technique. All petals of individual, intact orchid flowers were dipped into treatment solution and allowed to dry in Petri dishes. Treated petals were placed into individual re-sealable plastic along with about 20 adult thrips. All test arenas were held under continuous light and a temperature of about 28° C. for duration of the assay. After 3 days, the numbers of live thrips were counted on each petal. The percent mortality was recorded 72 hours after treatment.

[2] = tested on: boll weevil (Anthonomus grandis); experiment: Action on boll weevil (Anthonomus grandis), 96-well microtiter plate diet test; conditions: 120 h, egg and larval mortality after 5 days, read-out: mortality in comparison with untreated controls
Description: For evaluating control of boll weevil (Anthonomus grandis) the test unit consisted of 96-well-microtiter plates containing an insect diet and 5-10 A. grandis eggs.
The compounds were formulated using a solution containing 75% v/v water and 25% v/v DMSO. Different concentrations of formulated compounds were sprayed onto the insect diet at 5 μl, using a custom built micro atomizer, at two replications.
After application, microtiter plates were incubated at about 25±1° C. and about 75±5% relative humidity for 5 days. Egg and larval mortality was then visually assessed.

[3] = tested on: Southern Armyworm (Spodoptera eridania), 2nd Instar Larvae; experiment: Action on southern armyworm (Spodoptera eridania), 2nd instar larvae, sprayed lima bean plants; conditions: 96 h, 2nd instar larvae on lima bean, 4 days after treatment, read-out: mortality in comparison with untreated controls
Description: The active compounds were formulated by a Tecan liquid handler in 100% cyclohexanone as a 10,000 ppm solution supplied in tubes. The 10,000 ppm solution was serially diluted in 100% cyclohexanone to make interim solutions. These served as stock solutions for which final dilutions were made by the Tecan in 50% acetone:50% water (v/v) into 10 or 20 ml glass vials. A nonionic surfactant (Kinetic®) was included in the solution at a volume of 0.01% (v/v). The vials were then inserted into an automated electrostatic sprayer equipped with an atomizing nozzle for application to plants/insects.
Lima bean plants (variety Sieva) were grown 2 plants to a pot and selected for treatment at the 1st true leaf stage. Test solutions were sprayed onto the foliage by an automated electrostatic plant sprayer equipped with an atomizing spray nozzle. The plants were dried in the sprayer fume hood and then removed from the sprayer. Each pot was placed into perforated plastic bags with a zip closure. About 10 to 11 armyworm larvae were placed into the bag and the bags zipped closed. Test plants were maintained in a growth room at about 250C and about 20-40% relative humidity for 4 days, avoiding direct exposure to fluorescent light (24 hour photoperiod) to prevent trapping of heat inside the bags. Mortality and reduced feeding were assessed 4 days after treatment, compared to untreated control plants.

[4] = tested on: Silverleaf Whitefly (Bemisia argentifoli) (Adults); experiment: Action on silverleaf whitefly (Bemisia argentifoli) adults, sprayed cotton plants; conditions: Bemisia argentifolii, 72 h, 3 days after treatment, read-out: mortality in comparison with untreated controls
Description: The active compounds were formulated by a Tecan liquid handler in 100% cyclohexanone as a 10,000 ppm solution supplied in tubes. The 10,000 ppm solution was serially diluted in 100% cyclohexanone to make interim solutions. These served as stock solutions for which final dilutions were made by the Tecan in 50% acetone:50% water (v/v) into 5 or 10 ml glass vials. A nonionic surfactant (Kinetic®) was included in the solution at a volume of 0.01% (v/v). The vials were then inserted into an automated electrostatic sprayer equipped with an atomizing nozzle for application to plants/insects.
Cotton plants at the cotyledon stage (one plant per pot) were sprayed by an automated electrostatic plant sprayer equipped with an atomizing spray nozzle. The plants were dried in the sprayer fume hood and then removed from the sprayer. Each pot was placed into a plastic cup and about 10 to 12 whitefly adults (approximately 3-5 days old) were introduced. The insects were collected using an aspirator and a nontoxic Tygon® tubing connected to a barrier pipette tip. The tip, containing the collected insects, was then gently inserted into the soil containing the treated plant, allowing insects to crawl out of the tip to reach the foliage for feeding. Cups were covered with a reusable screened lid. Test plants were maintained in a growth room at about […] and about 20-40% relative humidity for 3 days, avoiding direct exposure to fluorescent light (24 hour photoperiod) to prevent trapping of heat inside the cup. Mortality was assessed 3 days after treatment, compared to untreated control plants.

[5] = tested on: tobacco budworm (Heliothis virescens); experiment: Action on tobacco budworm (Heliothis virescens), 96-well microtiter plate diet test; conditions: 120 h, egg and larval mortality after 5 days, read-out: mortality in comparison with untreated controls
Description: For evaluating control of tobacco budworm (Helliothis virescens) the test unit consisted of 96-well-microtiter plates containing an insect diet and 15-25 H. virescens eggs.
The compounds were formulated using a solution containing 75% v/v water and 25% v/v DMSO. Different concentrations of formulated compounds were sprayed onto the insect diet at 10 μl, using a custom built micro atomizer, at two replications.
After application, microtiter plates were incubated at about 28±1° C. and about 80±5% relative humidity for 5 days. Egg and larval mortality was then visually assessed.

[6] = tested on: yellow fever mosquito (Aedes aegypti); experiment: whole plant or invertebrate; conditions: 48 h, larval mortality visually assessed after 2 days, read-out: mortality in comparison with untreated controls
Description: For evaluating control of yellow fever mosquito (Aedes aegypti) the test unit consisted of 96-well-microtiter plates containing 200 μl of tap water per well and 5-15 freshly hatched A. aegypti larvae.
The active compounds were formulated using a solution containing 75% (v/v) water and 25% (v/v) DMSO. Different concentrations of formulated compounds or mixtures were sprayed onto the insect diet at 2.5 μl, using a custom built micro atomizer, at two replications.
After application, microtiter plates were incubated at 28±1° C., 80±5% RH for 2 days. Larval mortality was then visually assessed.

[7] = tested on: Diamond Back Moth (Plutella xylostella); experiment: Action on diamond back moth (Plutella xylostella), cabbage leaf dip; conditions: foliar, 3rd instar larvae on dipped cabbage leaves, 72 hours after treatment, read-out: mortality in comparison with untreated controls
Description: The active compound is dissolved at the desired concentration in a mixture of 1:1 (vol:vol) distilled water:acetone. Surfactant (Kinetic® HV) is added at a rate of 0.01% (vol/vol).The test solution is prepared at the day of use.
Leaves of cabbage were dipped in test solution and air-dried. Treated leaves were placed in petri dishes lined with moist filter paper and inoculated with ten 3rd instar larvae. Mortality was recorded 72 hours after treatment. Feeding damages were also recorded using a scale of 0-100%.

CC(/C=N/NC(=S)Nc1ccccc1C(C)C)=C\c1cnc(N(C)c2ccc(OC(F)(F)F)cc2)nc1 [Compound C-6, 1-(2-isopropylphenyl)-3-[(E)-[(E)-2-methyl-3-[2-[N-methyl-4-(trifluoromethoxy)anilino]pyrimidin-5-yl]prop-2-enylidene]amino]thiourea]
≥ 75%: mortality at 500 ppm [1] | mortality at 800 ppm [2] | mortality at 300 ppm [3] | mortality at 300 ppm [4] | mortality at 800 ppm [5] | mortality at 800 ppm [6] | mortality at 500 ppm [7]

CC(/C=N/N=C1\SCC(=O)N1c1ccccc1C(C)C)=C\c1cnc(N(C)c2ccc(OC(F)(F)F)cc2)nc1 [Compound C-7, (2Z)-3-(2-isopropylphenyl)-2-[(E)-[(E)-2-methyl-3-[2-[N-methyl-4-(trifluoromethoxy)anilino]pyrimidin-5-yl]prop-2-enylidene]hydrazono]thiazolidin-4-one]
≥ 75%: mortality at 500 ppm [1] | mortality at 800 ppm [2] | mortality at 300 ppm [3] | mortality at 300 ppm [4] | mortality at 800 ppm [5] | mortality at 800 ppm [6] | mortality at 500 ppm [7]

CC(/C=N/N=C1\SCC(=O)N1c1ccccc1C(C)C)=C\c1cnc(Nc2ccc(OC(F)(F)F)cc2)nc1 [Compound C-3, (2Z)-3-(2-isopropylphenyl)-2-[(E)-[(E)-2-methyl-3-[2-[4-(trifluoromethoxy)anilino]pyrimidin-5-yl]prop-2-enylidene]hydrazono]thiazolidin-4-one]
≥ 75%: mortality at 500 ppm [1] | mortality at 800 ppm [2] | mortality at 300 ppm [3] | mortality at 300 ppm [4] | mortality at 800 ppm [5] | mortality at 800 ppm [6] | mortality at 500 ppm [7]

CO[C@@H]1[C@@H](OC)[C@@H](OC)C(O/N=C/C(C)=C/c2cnc(N(C)c3ccc(OC(F)(F)F)cc3)nc2)O[C@H]1C (stereo partly drawn) [Compound C-23, N-methyl-5-[(E,3E)-2-methyl-3-[(3R,4R,5S,6S)-3,4,5-trimethoxy-6-methyl-tetrahydropyran-2-yl]oxyimino-prop-1-enyl]-N-[4-(trifluoromethoxy)phenyl]pyrimidin-2-amine]
≥ 75%: mortality at 500 ppm [1] | mortality at 800 ppm [2] | mortality at 300 ppm [3] | mortality at 300 ppm [4] | mortality at 800 ppm [5] | mortality at 800 ppm [6] | mortality at 500 ppm [7]

CC(C)c1ccccc1N1C(=O)CS\C1=N/N=C/C=C/c1cnc(N(C)c2ccc(OC(F)(F)F)cc2)nc1 [Compound C-5, (2Z)-3-(2-isopropylphenyl)-2-[(E)-[(E)-3-[2-[N-methyl-4-(trifluoromethoxy)anilino]pyrimidin-5-yl]prop-2-enylidene]hydrazono]thiazolidin-4-one]
≥ 75%: mortality at 500 ppm [1] | mortality at 800 ppm [2] | mortality at 300 ppm [3] | mortality at 300 ppm [4] | mortality at 800 ppm [5] | mortality at 800 ppm [6] | mortality at 500 ppm [7]

CC(/C=N/N=C1\SCC(=O)N1c1ccccc1C(C)C)=C\c1cnc(N(C)c2ccc(OC(F)(F)F)cc2)nc1C [Compound C-17, (2Z)-3-(2-isopropylphenyl)-2-[(E)-[(E)-2-methyl-3-[4-methyl-2-[N-methyl-4-(trifluoromethoxy)anilino]pyrimidin-5-yl]prop-2-enylidene]hydrazono]thiazolidin-4-one]
≥ 75%: mortality at 500 ppm [1] | mortality at 800 ppm [2] | mortality at 300 ppm [3] | mortality at 300 ppm [4] | mortality at 800 ppm [5] | mortality at 800 ppm [6] | mortality at 500 ppm [7]

From US20200077658A1, “Pesticidal Compounds” (BASF SE, priority 2016, published 2020)
